Literature values as cited in patent US20110319370A1, “Combination Hormone Therapy for the Eye” (DUQUESNE UNIVERSITY OF THE, priority 2010, published 2011).
In brackets after ≈: the same amount, converted by molar mass.

How the values were obtained:
[1] = test system: newborn rats treated with buthionine sulfoximine (BSO); conditions: cataracts develop by age 16 days, reduced from 100% without melatonin

With `COc1ccc2[nH]cc(CCNC(C)=O)c2c1` [Melatonin] as the compound, how does the “solubility in aqueous media” value (aqueous media) read?
Its value is 2.4 mg/mL (≈ 10.3 mM).

And the “solubility in organic solvents” value (organic solvents)?
Its value is 140.5 mg/mL (≈ 605 mM).

What about the cataract incidence [1] of the same compound?
The cataract incidence was 6.2%.
